Data from ChEMBL document CHEMBL1159089, “Synthesis, antimalarial and antitubercular activity of acetylenic chalcones” (Bioorg Med Chem Lett, 2010).
In brackets after ≈: the same amount, converted by molar mass.

What was measured:
[1] = test system: Mycobacterium tuberculosis; assay: Antitubercular activity against Mycobacterium tuberculosis H37Rv by low-oxygen-recovery assay; type: functional
[2] = test system: Mycobacterium tuberculosis; assay: Antitubercular activity against Mycobacterium tuberculosis H37Rv by microplate Alamar blue assay; type: functional
Plasmodium falciparum [3] = assay: Antimicrobial activity against chloroquine-resistant Plasmodium falciparum W2; type: functional, organism-based
Plasmodium falciparum [4] = assay: Antimicrobial activity against chloroquine-sensitive Plasmodium falciparum D10; type: functional, organism-based
Falcipain 2 = molecular target: T1, Falcipain 2 (Plasmodium falciparum, UniProt Q9N6S8); assay: Inhibition of Plasmodium falciparum falcipain-2
T1 sequence (Q9N6S8 whole entry): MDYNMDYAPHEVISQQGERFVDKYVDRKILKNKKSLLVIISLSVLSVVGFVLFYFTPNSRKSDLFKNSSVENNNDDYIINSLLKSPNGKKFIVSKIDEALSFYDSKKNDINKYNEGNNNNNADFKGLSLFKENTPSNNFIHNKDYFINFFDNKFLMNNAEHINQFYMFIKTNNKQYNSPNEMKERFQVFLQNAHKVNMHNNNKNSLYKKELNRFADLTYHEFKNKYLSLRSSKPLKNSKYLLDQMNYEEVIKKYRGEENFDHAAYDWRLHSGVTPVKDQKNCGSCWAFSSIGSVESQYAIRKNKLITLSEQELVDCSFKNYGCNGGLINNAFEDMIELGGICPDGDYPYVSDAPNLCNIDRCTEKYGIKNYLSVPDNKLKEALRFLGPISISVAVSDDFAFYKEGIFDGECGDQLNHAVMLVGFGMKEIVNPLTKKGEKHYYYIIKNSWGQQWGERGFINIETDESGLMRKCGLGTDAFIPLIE

Structure (SMILES) | MIC [1] | MIC [2] | IC50 (Plasmodium falciparum [3]) | IC50 (Plasmodium falciparum [4]) | IC50 (Falcipain 2)
NNC(=O)c1ccncc1 [ISONIAZID] | > 128 µM | 0.37 µM (≈ 0.0507 µg/mL) |  |  | 
COc1c(N2C[C@@H]3CCCN[C@@H]3C2)c(F)cc2c(=O)c(C(=O)O)cn(C3CC3)c12 [MOXIFLOXACIN] | 31.1 µM (≈ 12.5 µg/mL) | 0.29 µM (≈ 0.116 µg/mL) |  |  | 
C#CCOc1ccc(/C=C/C(=O)c2ccc(OC)c(OC)c2OC)cc1OC |  | 109 µM (≈ 41.7 µg/mL) | 7 µM | 7.7 µM | 
C#CCOc1cccc(C(=O)/C=C/c2ccc(OC)cc2OC)c1 |  | > 128 µM | > 20 µM | > 100 µM | > 100 µM
C#CCOc1ccc(/C=C/C(=O)c2ccc(OC)cc2OC)cc1OC |  | > 128 µM | 3.8 µM | 3.4 µM | 
C#CCOc1ccc(/C=C/C(=O)c2ccc(OC)c(OC)c2OC)cc1 |  | > 128 µM | > 20 µM | 13.3 µM | > 100 µM
CC(C)C[C@H](NC(=O)[C@H]1O[C@@H]1C(=O)O)C(=O)NCCCCN=C(N)N [E-64] |  |  |  |  | 0.047 µM
C#CCOc1cccc(/C=C/C(=O)c2ccc(OC)c(OC)c2OC)c1 | 13.1 µM (≈ 4.62 µg/mL) | 54 µM (≈ 19 µg/mL) | > 20 µM | > 100 µM | > 19 µM
C#CCOc1ccccc1C(=O)/C=C/c1ccc(OC)c(OC)c1OC | 46.1 µM (≈ 16.2 µg/mL) | 98.7 µM (≈ 34.8 µg/mL) | > 20 µM | > 100 µM | > 100 µM
C#CCOc1ccc(C(=O)/C=C/c2ccc(OC)cc2)cc1 |  | > 128 µM | > 20 µM | 16.5 µM | > 100 µM
C#CCOc1ccc(/C=C/C(=O)c2ccc(OC)cc2)cc1OC |  | > 128 µM | 8.4 µM | 9.7 µM | 
C#CCOc1cccc(C(=O)/C=C/c2ccc(OC)c(OC)c2OC)c1 | 29.7 µM (≈ 10.5 µg/mL) | 58.7 µM (≈ 20.7 µg/mL) | > 20 µM | 33 µM | > 100 µM
O=[N+]([O-])c1cn2c(n1)OC[C@@H](OCc1ccc(OC(F)(F)F)cc1)C2 [PRETOMANID] | 3.3 µM (≈ 1.19 µg/mL) | 0.16 µM (≈ 0.0575 µg/mL) |  |  | 
C#CCOc1ccccc1/C=C/C(=O)c1ccc(OC)cc1 | 50.7 µM (≈ 14.8 µg/mL) | 47.5 µM (≈ 13.9 µg/mL) | > 20 µM | > 100 µM | > 100 µM
C#CCOc1ccc(C(=O)/C=C/c2ccc(OC)c(OC)c2OC)cc1 |  | > 128 µM | > 20 µM | 4.43 µM | > 100 µM
C#CCOc1ccc(/C=C/C(=O)c2ccc(OC)cc2OC)cc1 |  | > 128 µM | > 20 µM | 54.8 µM | > 100 µM
C#CCOc1cccc(/C=C/C(=O)c2ccc(OC)cc2)c1 | 31.7 µM (≈ 9.27 µg/mL) | 40 µM (≈ 11.7 µg/mL) | > 20 µM | 11.6 µM | > 100 µM
C#CCOc1cccc(/C=C/C(=O)c2ccc(OC)cc2OC)c1 | 26.1 µM (≈ 8.41 µg/mL) | 54.9 µM (≈ 17.7 µg/mL) | > 20 µM | 7.57 µM | > 100 µM
C#CCOc1ccc(C(=O)/C=C/c2ccc(OC)cc2OC)cc1OC |  | > 128 µM | 9.7 µM | 20 µM | 
C#CCOc1ccccc1/C=C/C(=O)c1ccc(OC)c(OC)c1OC | 28.6 µM (≈ 10.1 µg/mL) | 61.9 µM (≈ 21.8 µg/mL) | > 20 µM | 50.6 µM | > 100 µM
C#CCOc1ccc(C(=O)/C=C/c2ccc(OC)cc2OC)cc1 | 108 µM (≈ 34.8 µg/mL) | 31 µM (≈ 9.99 µg/mL) | > 20 µM | > 100 µM | > 100 µM
C#CCOc1ccccc1C(=O)/C=C/c1ccc(OC)cc1 | 56.7 µM (≈ 16.6 µg/mL) | 31.1 µM (≈ 9.09 µg/mL) | > 20 µM | > 100 µM | > 100 µM
C#CCOc1ccccc1C(=O)/C=C/c1ccc(OC)cc1OC | 62.8 µM (≈ 20.2 µg/mL) | 53.7 µM (≈ 17.3 µg/mL) | > 20 µM | 18.9 µM | > 100 µM
C#CCOc1cccc(C(=O)/C=C/c2ccc(OC)cc2)c1 | > 128 µM | 51.2 µM (≈ 15 µg/mL) | > 20 µM | > 100 µM | > 100 µM
CO[C@H]1/C=C/O[C@@]2(C)Oc3c(C)c(O)c4c(O)c(c(/C=N/N5CCN(C)CC5)c(O)c4c3C2=O)NC(=O)/C(C)=C\C=C\[C@H](C)[C@H](O)[C@@H](C)[C@@H](O)[C@@H](C)[C@H](OC(C)=O)[C@@H]1C [RIFAMPIN] | 2.4 µM (≈ 1.98 µg/mL) | 0.05 µM (≈ 0.0411 µg/mL) |  |  | 
C#CCOc1ccc(/C=C/C(=O)c2ccc(OC)cc2)cc1 |  | > 128 µM | > 20 µM | > 100 µM | > 100 µM
C#CCOc1ccccc1/C=C/C(=O)c1ccc(OC)cc1OC | 14.9 µM (≈ 4.8 µg/mL) | 59.1 µM (≈ 19.1 µg/mL) | > 20 µM | 8 µM | > 100 µM
C#CCOc1ccc(C(=O)/C=C/c2ccc(OC)c(OC)c2OC)cc1OC |  | > 128 µM | 6.7 µM | 4.1 µM | 
